For experiment [1], the target named is T1, human GR (Homo sapiens, UniProt P04150).
T1 sequence (P04150 1-777): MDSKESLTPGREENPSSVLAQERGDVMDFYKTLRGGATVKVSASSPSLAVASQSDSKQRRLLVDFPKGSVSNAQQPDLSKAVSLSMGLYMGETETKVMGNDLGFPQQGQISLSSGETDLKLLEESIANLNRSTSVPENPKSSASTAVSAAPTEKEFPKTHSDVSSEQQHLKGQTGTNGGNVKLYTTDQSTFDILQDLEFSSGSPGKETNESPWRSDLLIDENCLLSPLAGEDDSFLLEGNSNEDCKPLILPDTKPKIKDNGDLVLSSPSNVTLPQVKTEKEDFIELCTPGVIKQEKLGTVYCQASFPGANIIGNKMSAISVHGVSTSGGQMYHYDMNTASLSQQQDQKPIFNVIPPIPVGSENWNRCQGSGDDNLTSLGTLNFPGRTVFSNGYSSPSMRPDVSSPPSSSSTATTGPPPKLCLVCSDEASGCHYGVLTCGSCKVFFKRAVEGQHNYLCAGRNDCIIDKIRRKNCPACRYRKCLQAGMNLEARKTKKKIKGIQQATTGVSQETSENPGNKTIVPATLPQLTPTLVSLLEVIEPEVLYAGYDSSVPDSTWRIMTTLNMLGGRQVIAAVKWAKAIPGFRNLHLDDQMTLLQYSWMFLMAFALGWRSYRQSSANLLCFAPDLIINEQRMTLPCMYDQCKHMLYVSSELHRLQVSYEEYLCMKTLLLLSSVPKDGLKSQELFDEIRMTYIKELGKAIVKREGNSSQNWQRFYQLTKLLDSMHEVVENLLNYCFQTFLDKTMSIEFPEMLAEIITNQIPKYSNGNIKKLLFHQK
Nature of the experiment: Transrepression Assay (GITAR), TNFα-β-lactamase reporter in U937 cells. Particulars: for GITAR > GRAMM % SEP: GITAR Emax minus GRAMMER Emax; for pEC50: U937 cells, inflection point, read-out: Transrepression U937 Cells GITAR IP. The arrangement: U937 cells contain an endogenous glucocorticoid receptor (GR); endogenous in cells; host or cells: U937 cells stably transfected with the TNF-alpha promoter/beta-lactamase reporter. The experiment is classed as cell-based. The gist of the method:
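First, U937 reporter cells (TNF-α promoter–β-lactamase, native GR) received compound for 30–45 min at 37 °C. Next, PMA (5 ng/ml) and LPS (100 ng/ml) final were added for about 18 hr. Finally, CCF2-AM loading gave the read-out, with 100 nM dexamethasone as 100%.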

Experiment [2] addresses T1, human GR. Nature of the experiment: Trans-Activation Modulation of Glucocorticoid Receptor (GRAMMER), MMTV-LUC reporter, agonist mode. The experiment is classed as cell-based. The arrangement: endogenous in cells. Particulars: for Emax: A549, A549 cells, maximum activity, read-out: Transactivation A549 Cells GRAMMER Emax; for pEC50: A549 cells, inflection point, read-out: Transactivation A549 Cells GRAMMER IP. The method in brief: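 Readout is luciferase from a modified MMTV LTR promoter after 24 h compound exposure alongside 10 nM dexamethasone (100% activity reference), DMSO ≤1%.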

The mark [3] stands for this setting: U-937, U937 cells, maximum activity, read-out: Transrepression U937 Cells GITAR Emax.
Where [4] appears, read: U-937, activity repressed by 100 nM dexamethasone alone set as 100%, read-out: maximal activity in the transrepression (GITAR) assay.

pEC50: −log10 of the molar value. A value given as a limit tells only on which side of the number the result lay.

As for `C[C@]12Cc3cnn(-c4ccc(F)cc4)c3C=C1CC[C@@H]2CN(CC#N)S(=O)(=O)c1cccc2ccccc12` [Example 40, N-(cyanomethyl)-N-{[(4αR,5S)-1-(4-fluorophenyl)-4α-methyl-1,4,4α,5,6,7-hexahydrocyclopenta[f]indazol-5-yl]methyl}naphthalene-1-sulfonamide], the “GITAR > GRAMM % SEP” value in experiment [1] was 16.6%. Further, the pEC50 in experiment [1] was 7.45; in experiment [2], 7.08. For the same compound, the Emax in experiment [1] (setting [3]) is 19.8%; in experiment [1] (setting [4]), above 5%; in experiment [2], 3.2%.
As to `C[C@]12Cc3cnn(-c4ccc(F)cc4)c3C=C1CC[C@@H]2CN(CC#N)S(=O)(=O)c1cc(OCC(F)(F)F)ccc1OCC(F)(F)F` [Example 41, N-(cyanomethyl)-N-{[(4αR,5S)-1-(4-fluorophenyl)-4α-methyl-1,4,4α,5,6,7-hexahydrocyclopenta[f]indazol-5-yl]methyl}-2,5-bis(2,2,2-trifluoroethoxy)benzenesulfonamide], the “GITAR > GRAMM % SEP” value in experiment [1] is on record as 31.6%. Also, the pEC50 in experiment [1] is 6.44; in experiment [2], 6.91. In addition, the Emax in experiment [1] (setting [3]) was 91.9%; in experiment [1] (setting [4]), above 5%; in experiment [2], 60.3%.
Regarding `C[C@]12Cc3cnn(-c4ccc(F)cc4)c3C=C1CC[C@@H]2CN(CC#N)S(=O)(=O)c1ccc(-c2ccccc2)cc1` [Example 42, N-(cyanomethyl)-N-{[(4αR,5S)-1-(4-fluorophenyl)-4α-methyl-1,4,4α,5,6,7-hexahydrocyclopenta[f]indazol-5-yl]methyl}biphenyl-4-sulfonamide], in experiment [1], the “GITAR > GRAMM % SEP” value was determined as 15.1%. In addition, the pEC50 in experiment [1] was 6.41; in experiment [2], 6.64. Further, the results for the Emax in experiment [1] (setting [3]), in experiment [1] (setting [4]) and in experiment [2] were 19.2%, above 5% and 4.2%, respectively.
As to `C[C@]12Cc3cnn(-c4ccc(F)cc4)c3C=C1CC[C@@H]2CN(CC#N)S(=O)(=O)c1ccccc1F` [Example 43, N-(cyanomethyl)-2-fluoro-N-{[(4αR,5S)-1-(4-fluorophenyl)-4α-methyl-1,4,4α,5,6,7-hexahydrocyclopenta[f]indazol-5-yl]methyl}benzenesulfonamide], the “GITAR > GRAMM % SEP” value in experiment [1] is 35.8%. The pEC50 in experiment [1] was 5.96; in experiment [2] it was 6.33. For the same compound, the Emax was 71.8% in experiment [1] (setting [3]), above 5% in experiment [1] (setting [4]) and 36% in experiment [2].
Take `C[C@]12Cc3cnn(-c4ccc(F)cc4)c3C=C1CC[C@@H]2CN(CC#N)S(=O)(=O)c1cc(F)cc(F)c1` [Example 44, N-(cyanomethyl)-3,5-difluoro-N-{[(4αR,5S)-1-(4-fluorophenyl)-4α-methyl-1,4,4α,5,6,7-hexahydrocyclopenta[f]indazol-5-yl]methyl}benzenesulfonamide]: the “GITAR > GRAMM % SEP” value in experiment [1] is listed as 20.8%. Further, the pEC50 in experiment [1] is 5.98; in experiment [2], 6.21. The results for the Emax in experiment [1] (setting [3]), in experiment [1] (setting [4]) and in experiment [2] were 65.6%, above 5% and 44.8%, respectively.
In the case of `C[C@]12Cc3cnn(-c4ccc(F)cc4)c3C=C1CC[C@@H]2CN(CC#N)S(=O)(=O)c1ccc(Oc2ccccn2)cc1` [Example 45, N-(cyanomethyl)-N-{[(4αR,5S)-1-(4-fluorophenyl)-4α-methyl-1,4,4α,5,6,7-hexahydrocyclopenta[f]indazol-5-yl]methyl}-4-(pyridin-2-yloxy)benzenesulfonamide], the “GITAR > GRAMM % SEP” value in experiment [1] was 1.3%. The results for the pEC50 in experiment [1] and in experiment [2] were 5.86 and 5.54, respectively. For the same compound, the Emax was 12.8% in experiment [1] (setting [3]), above 5% in experiment [1] (setting [4]) and 11.4% in experiment [2].
Turning to `C[C@]12Cc3cnn(-c4ccc(F)cc4)c3C=C1CC[C@@H]2CN(CC#N)S(=O)(=O)c1ccc(F)cc1` [Example 46, N-(cyanomethyl)-4-fluoro-N-{[(4αR,5S)-1-(4-fluorophenyl)-4α-methyl-1,4,4α,5,6,7-hexahydrocyclopenta[f]indazol-5-yl]methyl}benzenesulfonamide], the “GITAR > GRAMM % SEP” value in experiment [1] is 2.1%. The pEC50 in experiment [1] is 6.73; in experiment [2], 6.43. For the same compound, the Emax in experiment [1] (setting [3]) was 85.5%; in experiment [1] (setting [4]), above 5%; in experiment [2], 83.3%.
`C[C@]12Cc3cnn(-c4ccc(F)cc4)c3C=C1CC[C@@H]2CN(CC#N)S(=O)(=O)c1cc(F)c(F)cc1F` [Example 47, N-(cyanomethyl)-2,4,5-trifluoro-N-{[(4αR,5S)-1-(4-fluorophenyl)-4α-methyl-1,4,4α,5,6,7-hexahydrocyclopenta[f]indazol-5-yl]methyl}benzenesulfonamide]: the “GITAR > GRAMM % SEP” value in experiment [1] came to 15.7%. Further, the pEC50 was 6.05 in experiment [1] and 6.20 in experiment [2]. The Emax in experiment [1] (setting [3]) was 74%; in experiment [1] (setting [4]), above 5%; in experiment [2] it was 58.3%.
Consider `C[C@]12Cc3cnn(-c4ccc(F)cc4)c3C=C1CC[C@@H]2CN(CC#N)S(=O)(=O)Cc1ccccc1` [Example 48, N-(cyanomethyl)-N-{[(4αR,5S)-1-(4-fluorophenyl)-4α-methyl-1,4,4α,5,6,7-hexahydrocyclopenta[f]indazol-5-yl]methyl}-1-phenylmethanesulfonamide], for which the “GITAR > GRAMM % SEP” value in experiment [1] came out at 15.7%. Moreover, the values for the pEC50 in experiment [1] and in experiment [2] were 6.76 and 6.00, respectively. For the same compound, the Emax was 24.5% in experiment [1] (setting [3]), above 5% in experiment [1] (setting [4]) and 8.8% in experiment [2].
Regarding `Cc1ccccc1S(=O)(=O)N(CC#N)C[C@H]1CCC2=Cc3c(cnn3-c3ccc(F)cc3)C[C@@]21C` [Example 49, N-(cyanomethyl)-N-{[(4αR,5S)-1-(4-fluorophenyl)-4α-methyl-1,4,4α,5,6,7-hexahydrocyclopenta[f]indazol-5-yl]methyl}-2-methylbenzenesulfonamide], in experiment [1], the “GITAR > GRAMM % SEP” value is 8.9%. Besides, the pEC50 in experiment [1] is 6.04; in experiment [2], 6.02. For the same compound, the Emax is 23% in experiment [1] (setting [3]), above 5% in experiment [1] (setting [4]) and 14.1% in experiment [2].
As to `C[C@]12Cc3cnn(-c4ccc(F)cc4)c3C=C1CC[C@@H]2CN(CC#N)S(=O)(=O)c1ccccc1Cl` [Example 50, 2-chloro-N-(cyanomethyl)-N-{[(4αR,5S)-1-(4-fluorophenyl)-4α-methyl-1,4,4α,5,6,7-hexahydrocyclopenta[f]indazol-5-yl]methyl}benzenesulfonamide], in experiment [1], the “GITAR > GRAMM % SEP” value stood at 46.2%. Also, the pEC50 in experiment [1] and in experiment [2] was 6.02 throughout. Further, the figures for the Emax in experiment [1] (setting [3]), in experiment [1] (setting [4]) and in experiment [2] were 61.3%, above 5% and 15.1%, respectively.
For `C[C@]12Cc3cnn(-c4ccc(F)cc4)c3C=C1CC[C@@H]2CN(CC#N)S(=O)(=O)c1ccc(F)cc1F` [Example 51, N-(cyanomethyl)-2,4-difluoro-N-{[(4αR,5S)-1-(4-fluorophenyl)-4α-methyl-1,4,4α,5,6,7-hexahydrocyclopenta[f]indazol-5-yl]methyl}benzenesulfonamide], the “GITAR > GRAMM % SEP” value in experiment [1] was 3.5%. Also, the pEC50 in experiment [1] was 6.73; in experiment [2], 6.36. In addition, the Emax is 86.8% in experiment [1] (setting [3]), above 5% in experiment [1] (setting [4]) and 83.3% in experiment [2].
`Cc1nn(C)c(Cl)c1S(=O)(=O)N(CC#N)C[C@H]1CCC2=Cc3c(cnn3-c3ccc(F)cc3)C[C@@]21C` [Example 52, 5-chloro-N-(cyanomethyl)-N-{[(4αR,5S)-1-(4-fluorophenyl)-4α-methyl-1,4,4α,5,6,7-hexahydrocyclopenta[f]indazol-5-yl]methyl}-1,3-dimethyl-1H-pyrazole-4-sulfonamide]: in experiment [1], the “GITAR > GRAMM % SEP” value amounted to 22.5%. In addition, the pEC50 in experiment [1] was 6.06; in experiment [2], 6.24. Besides, the Emax in experiment [1] (setting [3]) was 54.4%; in experiment [1] (setting [4]), above 5%; in experiment [2] it was 31.9%.

(Values after patent US8299048B2, “Hexahydrocyclopentyl[f]indazole sulfonamides and derivatives thereof as selective glucocorticoid receptor modulators” (Merck Sharp & Dohme Corp., priority 2008, dated 2012).)
